Assay results as given in patent publication US11179396B2, “Heterocyclic compounds as antibacterials” (Janssen Sciences Ireland Unlimited Company, priority 2016, dated 2021).
In brackets after ≈: the same amount, converted by molar mass.

test system: M. tuberculosis; assay: not given; conditions: cited from earlier work

In the case of `CCc1nc2ccc(Cl)cn2c1C(=O)NCc1ccc(N2CCC(c3ccc(OC(F)(F)F)cc3)CC2)cc1` [Compound Q203], the “activity against both replicating and non-replicating bacteria” value is listed as “highly active”.

test system: M. tuberculosis H37Rv; assay: not given; conditions: strain M. tuberculosis H37Rv, inside macrophages; cited from earlier work

For `CCc1nc2ccc(Cl)cn2c1C(=O)NCc1ccc(N2CCC(c3ccc(OC(F)(F)F)cc3)CC2)cc1` [Compound Q203], the MIC50 is listed as 0.28 nM (≈ 0.156 ng/mL).

test system: Mycobacterium tuberculosis strain EH 4.0 (361.269); assay: Test 4: resazurin growth inhibition assay, M. tuberculosis strain EH 4.0; type: cell-based; conditions: read-out: pIC50 (converted)
From the text: Test 4 (See Also Test 1 Above; in this Test a Different Strain of Mycobacterium tuberculosis Strain is Employed)
Appropriate solutions of experimental and reference compounds were made in 96 well plates with 7H9 medium. Samples of Mycobacterium tuberculosis strain EH 4.0 (361.269) were taken from cultures in stationary growth phase. These were first diluted to obtain an optical density of 0.3 at 600 nm wavelength and then diluted 1/100, resulting in an inoculum of approximately 5×10 exp5 colony forming units per well. Plates were incubated at 37° C. in plastic bags to prevent evaporation. After 7 days, resazurin was added to all wells. Two days later, fluorescence was measured on a Gemini EM Microplate Reader with 543 nm excitation and 590 nm emission wavelengths and MIC50 and/or pIC50 values (or the like, e.g. IC50, IC90, pIC90, etc) were (or may be) calculated. pIC50 values may be recorded below in μg/mL.

First: CCc1nc2ccc(Cl)cn2c1C(=O)NCc1ccc(N2CC3CC(F)CC3C2)cc1 (stereo not drawn) [Cpd 1]
Second: CCc1nc2ncc(Cl)cn2c1C(=O)NCc1ccc(N2CC3CC(F)CC3C2)cc1 (stereo not drawn) [Cpd 4]
The IC50 of the first is 2.8-fold lower: 39.8 nM for the first, 112 nM for the second.

Going from `CCc1nc2sc(C)cn2c1C(=O)NCc1ccc(N2CC3CC(F)CC3C2)cc1` (stereo not drawn) [Cpd 2] to `CCc1nc2sc(C)cn2c1C(=O)NCc1ccc(N2CC3C(C2)C3C(F)(F)F)cc1` (stereo not drawn) [Cpd 7], the IC50 falls from 50.1 nM to 31.6 nM (1.6-fold).

Compared with `CCc1nc2n(c1C(=O)NCc1ccc(N3CC4CC(F)CC4C3)cc1)CCCC2` (stereo not drawn) [Cpd 3], `Cc1nn2ccccc2c1C(=O)NCc1ccc(N2C[C@H]3C[C@H](F)C[C@H]3C2)cc1` [Cpd 8] is 11-fold higher in IC50: 100 nM for the first, 1120 nM for the second.

`CCc1nc2ncc(Cl)cn2c1C(=O)NCc1ccc(N2C[C@@H]3CC(F)(F)C[C@@H]3C2)cc1` [Cpd 9] showed an IC50 of 15.8 nM.
